Test results as given in patent US20060205751A1, “Novel compounds” (SmithKline Beecham Corporation, priority 2003, published 2006).

melting point: 79.5 to 80.5 °C
Structure (SMILES): O=C(O)c1cccc(-c2cc3cc(Cl)c(Cl)cc3[nH]2)c1 [Example 1, 3-(5,6-Dichloro-1H-indol-2-yl)-benzoic acid]
